# From patent US10464902B1, “Multi-tyrosine kinase inhibitors derivatives and methods of use” (Ontogenesis, LLC, priority 2015, dated 2019)
# Like-named read-outs stand apart in the source and are kept apart here.
# Experiments:
# [1] = test system: intraocular proliferative retinopathy; assay: Virtual discovery: intravitreal injection, intraocular proliferative retinopathy; assay type: in vivo
# From the text: With the onset of proliferative retinopathy however conventional anti-VEGF therapy causes increased fibrosis. Van Geest R. J. et al., A shift in the balance of vascular endothelial growth factor and connective tissue growth factor by bevacizumab causes the angiofibrotic switch in proliferative diabetic retinopathy Br J Ophthalmol, 2012 April, 96(4), 587-90. […]. The suppression of intraocular proliferative retinopathy in turn suppresses fibrotic induction and the most severe manifestations of proliferative eye disease. This suppression also is virtually discovered to occur when the methyl of the preferred embodiments is replaced by any alkyl group. […]. As diabetic macular edema is amenable to anti-VEGF therapy, its use in patients with preproliferative severe peripheral ischemic disease, and or patients with early proliferative disease may enhance the onset of fibrovascular proliferative morbidity, whereas the present invention using MTKIs combining VEGF suppression with c-MET suppression may both reduce diabetic macular edema and suppress diabetic fibrovascular proliferation.
# VEGFR [2] = assay: Virtual discovery: suppression of VEGFR; conditions: virtually discovered
# [3] = test system: subretinal choroidal neovascularization (CNV); assay: Subretinal choroidal neovascularization model after intravitreal injection (virtual example); assay type: in vivo, mammal (preferably a pigmented rabbit or a primate); conditions: intravitreal 50 uL, 10-20 mg/mL
# Method: The first solution was then added to a saturated fatty acid (e.g. octanoic acid) combined with lecithin or lecithin derivatives (e.g. phosphatidyl choline), a glycerol fatty acid ester (e.g. propylene glycol fatty acid esters such as polyoxyethyleneglycerol triricinoleate), a sorbitan fatty acid ester (e.g. Span® 20, Span® 80) or a olyoxylethylene sorbitan fatty acid ester (e.g. Tween® 20, Tween® 80), and optionally a co-surfactant (e.g. propylene glycol, glycerol, PEG 400, 1,2-propanediol), which were then solubilized as a microemulsion using commercial lipoemulsion techniques (e.g. Intralipid®, Abbolipid). […] 50 uL of either Lucentis® or Eylea® was administered into the remaining eye of the mammal. 2 weeks after administration a subretinal choroidal neovascularization (CNV) was caused in the eyes of the mammal using techniques explained in Qui G et al., A new model of experimental subretinal neovascularization in the rabbit, Exp Eye Res, 2006 July, 83(1), 141-152. 6 weeks after subretinal CNV eyes of the mammal were sacrificed for examination.
# VEGFR2 [4] = target: T1, VEGFR2 (Homo sapiens (Human), UniProt P35968); conditions: human umbilical vein endothelial cells; cited from earlier work
# Target sequence in this assay (P35968 20-1356): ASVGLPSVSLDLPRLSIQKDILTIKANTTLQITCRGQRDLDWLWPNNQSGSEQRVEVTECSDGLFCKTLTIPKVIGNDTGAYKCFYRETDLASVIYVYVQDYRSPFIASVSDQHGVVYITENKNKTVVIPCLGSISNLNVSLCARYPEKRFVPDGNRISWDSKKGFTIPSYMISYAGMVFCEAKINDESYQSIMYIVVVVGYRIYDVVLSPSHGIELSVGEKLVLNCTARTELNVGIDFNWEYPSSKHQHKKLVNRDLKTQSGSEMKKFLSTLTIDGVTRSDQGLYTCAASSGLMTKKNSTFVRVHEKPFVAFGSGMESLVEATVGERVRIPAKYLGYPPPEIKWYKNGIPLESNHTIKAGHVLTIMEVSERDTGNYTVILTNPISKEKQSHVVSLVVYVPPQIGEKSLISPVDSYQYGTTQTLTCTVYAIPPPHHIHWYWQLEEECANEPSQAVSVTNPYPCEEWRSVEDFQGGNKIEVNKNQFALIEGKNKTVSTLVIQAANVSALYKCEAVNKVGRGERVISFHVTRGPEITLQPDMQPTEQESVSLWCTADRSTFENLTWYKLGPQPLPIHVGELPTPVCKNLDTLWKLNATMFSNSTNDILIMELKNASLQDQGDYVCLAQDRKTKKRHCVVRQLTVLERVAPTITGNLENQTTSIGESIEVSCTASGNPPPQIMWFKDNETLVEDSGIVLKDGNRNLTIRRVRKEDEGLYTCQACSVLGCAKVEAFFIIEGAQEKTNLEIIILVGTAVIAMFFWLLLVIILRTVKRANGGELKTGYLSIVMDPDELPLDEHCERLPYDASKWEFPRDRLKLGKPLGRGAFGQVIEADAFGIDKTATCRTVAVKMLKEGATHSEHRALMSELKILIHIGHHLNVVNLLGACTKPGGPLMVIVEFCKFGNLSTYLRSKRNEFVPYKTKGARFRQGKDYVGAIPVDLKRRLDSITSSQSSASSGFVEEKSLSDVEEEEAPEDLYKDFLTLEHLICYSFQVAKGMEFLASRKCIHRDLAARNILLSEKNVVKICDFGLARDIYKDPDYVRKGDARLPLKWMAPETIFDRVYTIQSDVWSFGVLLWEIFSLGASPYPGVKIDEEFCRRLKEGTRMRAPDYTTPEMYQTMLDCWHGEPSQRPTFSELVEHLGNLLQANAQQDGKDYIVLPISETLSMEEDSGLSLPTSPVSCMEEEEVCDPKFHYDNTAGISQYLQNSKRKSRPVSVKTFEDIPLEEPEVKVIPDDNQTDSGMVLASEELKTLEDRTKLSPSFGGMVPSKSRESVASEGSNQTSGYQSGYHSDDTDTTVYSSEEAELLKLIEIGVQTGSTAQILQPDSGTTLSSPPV
# [5] = Residence in the vitreous humor; assay type: in vivo; conditions: estimated for its molecular weight
# VEGFR2 [6] = target: T1, VEGFR2; conditions: HUVEC, in vitro angiogenic assays; read-out: IC50 VEGFR2 inhibition; cited from earlier work
# VEGFR [7] = conditions: read-out: IC50 (concentration required for efficacy); cited from earlier work
compound,measurement,setting,value
CCCCCCCCCCCCCCCC(=O)OC[n+]1ccc(Oc2ccc(NC(=O)C3(C(=O)Nc4ccc(F)cc4)CC3)cc2)c2cc(OC)c(OC)cc21 [Cabozantinib N-acyl methyl palmitate],suppression of intraocular proliferative retinopathy,[1],suppress intraocular proliferative retinopathy
same,suppression of VEGFR,VEGFR [2],suppress
same,suppression of macular edema,[3],long-lasting suppression of macular edema
same,suppression of fibrovascular proliferation,"[3]; vs Lucentis or Eylea in the other eye, CNV 2 weeks after dosing, examined 6 weeks later",Greater suppression of fibrovascular proliferation
Cn1cnc(-c2cc3nccc(Oc4ccc(NC(=S)NC(=O)Cc5ccccc5)cc4F)c3s2)c1 [MGCD-265],IC50,VEGFR2 [4],3 nM
"Cc1ccc(Nc2nccc(N(C)c3ccc4c(C)n(C)nc4c3)n2)cc1S(N)(=O)=O [pazopantinib, Pazopantinib]",intravitreal clearance,[5],within hours
bevacizumab [Avastin],IC50,VEGFR2 [6],~1.4 nM
foretinib N-acyl methyl palmitate,suppression of intraocular proliferative retinopathy,[1],suppress intraocular proliferative retinopathy
ranibizumab [Lucentis],IC50,VEGFR [7],~19 nM
